Test system: carrageenan-induced mouse paw edema
Assay: Carrageenan-induced paw edema
Format: in vivo, mouse (female C57BL/6J)
Conditions: carrageenan-induced mouse paw inflammation; IIn treated

CN(Cc1ccccn1)Cc1cccc(CN(C)Cc2ccccn2)n1 [IIn, N,N′-(Pyridine-2,6-diylbis(methylene))bis(N-methyl-1-(pyridin-2-yl)methanamine)]
Histological analysis of paw tissue (H&E): significantly attenuated the mouse paw inflammation and damage

Source: publication PMC4894032 (European journal of medicinal chemistry, 2016)
